Experimental data published in patent US10781197B2, “Sulfonamide analogues of galiellalactone” (GLACTONE PHARMA DEVELOPMENT AB, priority 2016, dated 2020).
Read-outs that look alike come from different tables or passages of the source.

Tests used:
STAT3 signaling = assay: STAT3 Luciferase reporter gene assay; format: cell-based; conditions: Homo sapiens; STAT3 reporter/HEK293 cell line, 1 h pretreatment, IL-6 induced for 16 h, luciferase activity; read-out: IC50
Description: The ability to inhibit STAT3 signaling of the example compounds in comparison to galiellalactone was evaluated using a STAT3 Luciferase reporter gene assay.
Compounds were tested for dose response activity to determine IC50 at eight different doses (0.03, 0.1, 0.3, 1, 3, 10, 30 and 100 μM) in triplicate on the STAT3 reporter system.
Briefly, the STAT3 reporter/HEK293 cell line was plated in 96-well white plates for 16 h. Cells were pretreated with compounds for 1 h. Cells were then treated with IL-6 to induce STAT3 activation for 16 h. Luciferase activity was measured and analyzed.

[1] = In vivo pharmacokinetics, plasma exposure after single oral dose; conditions: CD1 mice, single oral gavage 10 mg/kg
Description: Pharmacokinetic (PK) studies were performed in CD1 mice to establish plasma exposure following administration of single oral doses of galiellalactone (GL) and example 1. Sample analysis was by LC-MS/MS. Dose solutions were prepared at a drug concentration of 0.5 mg/mL in 5% DMSO in 50 mM citrate buffer (citric acid/sodium citrate pH 4.0) and administered as a 20 mL/kg oral gavage (10 mg/kg).

[2] = system: IL-6 stimulated LNCaP prostate cancer cells; assay: Inhibition of IL-6 stimulated LNCaP cell proliferation, MTT assay; format: cell-based; conditions: Homo sapiens, IL-6 stimulated LNCaP cells, read-out: GIC50
[3] = Chemical stability in phosphate buffer solution (PBS); format: physicochemical; conditions: 37° C., 1 μM test concentration
Description: The chemical stability of example 20 and 28 in solution was determined in phosphate buffer solution (PBS) at 37° C. as outlined below.
A 4 μl volume of 100 μM stock solution of the study compound in 50% DMSO was added to 396 μl of PBS, to obtain 1 μM test concentration. The study compounds were incubated in PBS at 37° C. with 600 rpm shaking. The incubations were quenched (30, 60, and 120 min) using a two-fold volume of cold acetonitrile and analyzed. The samples (0, 30, 60, and 120 min) were analyzed using a Waters Acquity UPLC with Thermo Q-Exactive Focus Orbitrap and a Waters HSS T3 (2.1×50 mm, 1.7 μm particle size) column.

IL-6/STAT3 signaling = conditions: cited from earlier work

| SMILES | IC50 (STAT3 signaling) [nM] | AUC(0-inf) ([1]; mouse) [ng·h/mL] | AUC(0-t) ([1]; mouse) [ng·h/mL] | half-life ([1]; mouse, read-out: Apparent half-life (converted)) [min] | Cmax ([1]; mouse, read-out: Cmax) [ng/mL] | Tmax ([1]; mouse, read-out: Tmax) [min] | IC50 [2] [nM] | half-life at 1 μM [3] [min] | inhibition of IL-6/STAT3 signaling (IL-6/STAT3 signaling) | Cmax [1] [ng/mL] | Tmax [1] [min] |
| --- | --- | --- | --- | --- | --- | --- | --- | --- | --- | --- | --- |
| Cc1ccc(S(=O)(=O)N[C@@]2(C)C=C3C(=O)O[C@@H]4CC[C@H](C2)[C@]34O)cc1 [Example 1, N-[(4R,7R,9R,11S)-11-Hydroxy-9-methyl-2-oxo-3-oxatricyclo[5.3.1.0^4,11]undec-1(10)-en-9-yl]-4-methylbenzene-1-sulfonamide] | 1100 | 157 | 141 | 120 | 129 | 15 | 1000 |  |  |  |  |
| C[C@]1(NS(=O)(=O)c2ccc(C(F)(F)F)cn2)C=C2C(=O)O[C@@H]3CCC(C1)[C@]23O (stereo partly drawn) [Example 20, N-[(4R,7R,9R,11S)-11-hydroxy-9-methyl-2-oxo-3-oxatricyclo[5.3.1.0^4,^11]undec-1(10)-en-9-yl]-5-(trifluoromethyl)pyridine-2-sulfonamide] | 1250 |  |  |  |  |  |  | 349 |  |  |  |
| C[C@]1(NS(=O)(=O)c2ccc(C(F)(F)F)cn2)C=C2C(=O)O[C@]3(C)CC[C@H](C1)[C@]23O [Example 28, N-[(4R,7R,9R,11S)-11-hydroxy-4,9-dimethyl-2-oxo-3-oxatricyclo[5.3.1.0^4,11]undec-1 (10)-en-9-yl]-5-(trifluoromethyl)pyridine-2-sulfonamide] | 920 |  |  |  |  |  |  | > 789 |  |  |  |
| C[C@@H]1C=C2C(=O)O[C@@H]3CC[C@H](C1)[C@]23O [Galiellalactone, (−)-Galiellalactone] | 7500 |  |  |  |  |  | 2800 |  | submicromolar | 52 | 30 |
